# Results from US9169481B2, “Cell-mediated directed evolution” (priority 2006, dated 2015).
# Tests used:
# [1] = system: D-2-deoxyribose-5-phosphate aldolase (DERA) variant; details: directed evolution with in vitro screen; DeSantis et al., 2003; cited from earlier work
# [2] = target: lipocalin (de novo selected); details: Beste et al., 1999; read-out: dissociation constant; cited from earlier work
# [3] = system: reverse yeast three-hybrid strain; assay: 5-FOA effect on growth of reverse yeast three-hybrid strain; format: cell-based, Saccharomyces cerevisiae; details: 5-FOA concentrations beyond 0.3%
# From the text: First, we recombined the URA3 gene at the ura3-52 locus of our chemical complementation yeast strain, FY251, and selected for Ura^+ phenotype on medium lacking uracil to create VC2169. Next, the vectors carrying the DBD-DHFR and GR-B42 constructs were introduced into VC2169 and selected on plates lacking uracil, histidine, and tryptophan to create VC2291. Finally, we introduced the LexA(4op) and the Spo13 promoter upstream of the URA3 gene and selected for Ura^− phenotype on medium containing 5-FOA. This selection provided numerous reverse three-hybrid colonies. Three colonies were used to optimize the reverse yeast three-hybrid system for the highest fold increase in activation in the presence of 10 μM Mtx-Dex by measuring the difference between cell survival and cell death. Mtx-Dex was used, instead of Mtx-Cel-Dex, for the optimization of the system as the cellulose linker is not necessary for the system's functioning, and the synthesis of Mtx-Dex is simpler than that of Mtx-Cel-Dex. The system was optimized by varying the level of galactose, which affects the concentration of DBD-DHFR and AD-GR in the system, and 5-FOA, which controls the toxicity level of the reporter gene. Galactose levels ranging from 1 to 2% and 5-FOA concentrations ranging from 0.1 to 0.5% were tested simultaneously. […]
smiles,measurement,setting,value
O=C[C@H](O)CO [D-glyceraldehyde],improvement in catalytic efficiency,[1],2.5 fold
O=C1OC2(c3ccc(O)cc3Oc3cc(O)ccc32)c2ccccc21 [fluorescein],Kd,[2],65 nM
"O=C(O)c1[nH]c(=O)[nH]c(=O)c1F [5-FOA, 5-fluoroorotic acid]",effect on cell growth,[3],detrimental for cell growth
